The results in this text go back to US11524968B2, “Heterocyclic compound as a protein kinase inhibitor” (HK inno.N Corporation, priority 2017, dated 2022).

SMILES strings stand for the structures. A value given as a limit tells only on which side of the number the result lay.

In one assay the target is JAK1 (Homo sapiens (Human), UniProt P23458). Put plainly: Analysis of JAK1 activity inhibition ability (ADP-Glo Kinase Assay). In kind it is biochemical.
Chain of JAK1 (P23458 whole entry): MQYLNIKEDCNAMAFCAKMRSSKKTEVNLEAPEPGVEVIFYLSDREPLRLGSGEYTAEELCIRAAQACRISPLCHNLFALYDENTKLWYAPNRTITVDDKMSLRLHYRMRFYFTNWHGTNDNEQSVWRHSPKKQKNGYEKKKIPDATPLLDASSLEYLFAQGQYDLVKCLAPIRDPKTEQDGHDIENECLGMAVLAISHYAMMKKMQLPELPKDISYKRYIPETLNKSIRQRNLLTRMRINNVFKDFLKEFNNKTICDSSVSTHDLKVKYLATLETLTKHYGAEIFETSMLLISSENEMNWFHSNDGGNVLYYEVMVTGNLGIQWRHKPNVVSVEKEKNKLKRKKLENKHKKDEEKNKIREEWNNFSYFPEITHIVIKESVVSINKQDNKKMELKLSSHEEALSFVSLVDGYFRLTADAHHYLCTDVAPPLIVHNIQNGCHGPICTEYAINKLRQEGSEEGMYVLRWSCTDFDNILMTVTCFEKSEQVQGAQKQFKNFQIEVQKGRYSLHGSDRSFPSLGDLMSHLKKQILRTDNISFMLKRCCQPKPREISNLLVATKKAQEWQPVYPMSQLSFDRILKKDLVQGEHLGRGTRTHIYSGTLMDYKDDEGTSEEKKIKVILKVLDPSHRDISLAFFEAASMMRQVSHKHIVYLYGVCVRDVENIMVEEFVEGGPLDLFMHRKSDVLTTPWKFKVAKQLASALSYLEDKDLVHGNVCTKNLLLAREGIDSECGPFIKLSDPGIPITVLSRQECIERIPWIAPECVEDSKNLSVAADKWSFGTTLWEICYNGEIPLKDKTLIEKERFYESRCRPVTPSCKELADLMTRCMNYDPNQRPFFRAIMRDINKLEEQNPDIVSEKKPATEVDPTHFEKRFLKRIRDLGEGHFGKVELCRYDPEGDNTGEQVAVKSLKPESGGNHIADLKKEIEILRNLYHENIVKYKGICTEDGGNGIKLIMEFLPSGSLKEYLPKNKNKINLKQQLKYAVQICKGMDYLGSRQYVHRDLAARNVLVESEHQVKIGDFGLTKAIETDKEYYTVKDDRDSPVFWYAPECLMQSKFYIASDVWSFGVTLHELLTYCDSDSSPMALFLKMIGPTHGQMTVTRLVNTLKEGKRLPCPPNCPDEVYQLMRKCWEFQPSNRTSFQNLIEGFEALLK
Conditions: not given
A digest of the protocol:
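ADP-Glo luminescence read-out of ADP production, with IC50 taken as the concentration halving JAK1 activity relative to control. Enzyme was incubated 40 min at 30 °C with compound, IRS-itide (40 ng/mL) and ATP (250 uM), concentrations as prepared in pH 7.5 Tris-HCl/MgCl2/BSA/DTT buffer.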
For orientation: ADP-Glo turns the ADP formed in a reaction into a luminescent signal.
The IC50 is the concentration at which inhibition is half-maximal. `O=C1CCN(C(=O)Cc2ccc(-c3cc(NC(=O)C4CC4)nc4[nH]ccc34)cc2)CC1` [Example 549, N-(4-(4-(2-oxo-2-(4-oxopiperidin-1-yl)ethyl)phenyl)-1H-pyrrolo[2,3-b]pyridin-6-yl)cyclopropanecarboxamide] had an IC50 of 20 to 200 nM.

Staying with this assay, now noted: JAK1 enzyme, ADP-Glo luminescence, ATP 250 uM, IRS-itide substrate, 30° C. 40 minutes; read-out: IC50.
As for `CN(C)S(=O)(=O)Nc1ccc(-c2nc(NC(=O)C3CC3)nc3[nH]ccc23)cc1` [Example 236, N-(4-(4-((N,N-dimethylsulfamoyl)amino)phenyl)-7H-pyrrolo[2,3-d]pyrimidin-2-yl)cyclopropanecarboxamide], the IC50 is 20 to 200 nM.
The same measure, in the same setting: in the case of `CCCn1ccc2c(-c3ccc(NS(=O)(=O)CC)c(F)c3)cc(NC(=O)C3CC3)nc21` [Example 61, N-(4-(4-(ethylsulfonamido)-3-fluorophenyl)-1-propyl-1H-pyrrolo[2,3-b]pyridin-6-yl)cyclopropanecarboxamide] it was > 200 nM; in that of `N#CCC(=O)N1C2CCC1CN(c1nc(Nc3ccccc3)nc3[nH]ccc13)C2` [Example 721, 3-oxo-3-(3-(2-(phenylamino)-7H-pyrrolo[2,3-d]pyrimidin-4-yl)-3,8-diazabicyclo[3.2.1]octan-8-yl)propanenitrile], 20 to 200 nM.
In the case of `O=C(Nc1cc(-c2ccc(NS(=O)(=O)CCCF)c(F)c2)c2cc[nH]c2n1)C1CC1` [Example 76, N-(4-(3-fluoro-4-((3-fluoropropyl)sulfonamido)phenyl)-1H-pyrrolo[2,3-b]pyridin-6-yl)cyclopropanecarboxamide], the IC50 is < 20 nM.
Consider `CC1CN(C(=O)c2ccc(S(C)(=O)=O)cc2)CC=C1c1cc(NC(=O)C2CC2)nc2[nH]ccc12` (stereo not shown) [Example 354, N-(4-(3-methyl-1-(4-(methylsulfonyl)benzoyl)-1,2,3,6-tetrahydropyridin-4-yl)-1H-pyrrolo[2,3-b]pyridin-6-yl)cyclopropanecarboxamide], for which the 50% inhibitory concentration (IC50) was in the range of 20 to 200 nM.
Take `O=C(Nc1cc(-c2ccc(NC3CCN(C(=O)c4ccnc(F)c4)CC3)cc2)c2cc[nH]c2n1)C1CC1` [Example 509, N-(4-(4-((1-(2-fluoroisonicotinoyl)piperidin-4-yl)amino)phenyl)-1H-pyrrolo[2,3-b]pyridin-6-yl)cyclopropanecarboxamide]: the IC50 is > 200 nM.
For `N#Cc1ccc(S(=O)(=O)Nc2ccc(-c3cc(NC(=O)C4CC4)nc4[nH]ccc34)cc2)cc1` [Example 21, N-(4-(4-((4-cyanophenyl)sulfonamido)phenyl)-1H-pyrrolo[2,3-b]pyridin-6-yl)cyclopropanecarboxamide], the IC50 lay within 20 to 200 nM.
Same read-out and setting: in the case of `O=C(Nc1cc(C2=CCN(C(=O)C3CCS(=O)(=O)CC3)CC2)c2cc[nH]c2n1)C1CC1` [Example 249, N-(4-(1-(1,1-dioxidotetrahydro-2H-thiopyran-4-carbonyl)-1,2,3,6-tetrahydropyridin-4-yl)-1H-pyrrolo[2,3-b]pyridin-6-yl)cyclopropanecarboxamide] it was 20 to 200 nM.
With `Cc1cc(NS(=O)(=O)CC2CC2)ccc1-c1cc(NC(=O)C2CC2)nc2[nH]ccc12` [Example 92, N-(4-(4-((cyclopropylmethyl)sulfonamido)-2-methylphenyl)-1H-pyrrolo[2,3-b]pyridin-6-yl)cyclopropanecarboxamide], the IC50 lay in the range of 20 to 200 nM.
Regarding `N#CCCS(=O)(=O)NC1CC=C(c2cc(NC(=O)C3CC3)nc3[nH]ccc23)CC1` (stereo not shown) [Example 155, N-(4-(4-((2-cyanoethyl)sulfonamido)cyclohex-1-en-1-yl)-1H-pyrrolo[2,3-b]pyridin-6-yl)cyclopropanecarboxamide], the IC50 is < 20 nM.
In the case of `O=C(Nc1cc(-c2ccc(NS(=O)(=O)C3CC3)c(F)c2)c2cc[nH]c2n1)C1CC1` [Example 69, N-(4-(4-(cyclopropanesulfonamido)-3-fluorophenyl)-1H-pyrrolo[2,3-b]pyridin-6-yl)cyclopropanecarboxamide], the IC50 was < 20 nM.
Regarding `O=C(Nc1nc(-c2ccc(NS(=O)(=O)C3CCCCC3)cc2)c2cc[nH]c2n1)C1CC1` [Example 183, N-(4-(4-(cyclohexanesulfonamido)phenyl)-7H-pyrrolo[2,3-d]pyrimidin-2-yl)cyclopropanecarboxamide], the IC50 is < 20 nM.
Turning to `O=C(Nc1nc(-c2ccc(NS(=O)(=O)N3CCOCC3)cc2)c2nc[nH]c2n1)C1CC1` [Example 238, N-(6-(4-(morpholine-4-sulfonamido)phenyl)-9H-purin-2-yl)cyclopropanecarboxamide], the IC50 is > 200 nM.
For `O=C(Nc1cc(C2=CCC(NS(=O)(=O)C(F)(F)F)CC2)c2cc[nH]c2n1)C1CC1` (stereo not shown) [Example 153, N-(4-(4-((trifluoromethyl)sulfonamido)cyclohex-1-en-1-yl)-1H-pyrrolo[2,3-b]pyridin-6-yl)cyclopropanecarboxamide], the IC50 lay within 20 to 200 nM.
As for `O=C(Nc1cc(-c2ccc(C3(C(=O)N4CCS(=O)(=O)CC4)CC3)cc2)c2cc[nH]c2n1)C1CC1` [Example 577, N-(4-(4-(1-(1,1-dioxidothiomorpholine-4-carbonyl)cyclopropyl)phenyl)-1H-pyrrolo[2,3-b]pyridin-6-yl)cyclopropanecarboxamide], the IC50 was 20 to 200 nM.
Take `O=C(Nc1cc(C2=CCN(C(=O)c3ccnc(F)c3)CCC2)c2cc[nH]c2n1)C1CC1` [Example 423, N-(4-(1-(2-fluoroisonicotinoyl)-2,5,6,7-tetrahydro-1H-azepin-4-yl)-1H-pyrrolo[2,3-b]pyridin-6-yl)cyclopropanecarboxamide]: the IC50 was < 20 nM.
As to `O=C(Nc1cc(C2=CCN(S(=O)(=O)C3CC3)CC2)c2cc[nH]c2n1)C1CC1` [Example 168, N-(4-(1-(cyclopropylsulfonyl)-1,2,3,6-tetrahydropyridin-4-yl)-1H-pyrrolo[2,3-b]pyridin-6-yl)cyclopropanecarboxamide], the IC50 lay within 20 to 200 nM.
Same read-out and setting: in the case of `CC(c1ccc(-c2cc(NC(=O)C3CC3)nc3[nH]ccc23)cc1)N1CCS(=O)(=O)CC1` (stereo not shown) [Example 589, N-(4-(4-(1-(1,1-dioxidothiomorpholino)ethyl)phenyl)-1H-pyrrolo[2,3-b]pyridin-6-yl)cyclopropanecarboxamide] it was < 20 nM; in that of `O=C(Nc1cc(-c2ccc(OS(=O)(=O)CC3CCCCC3)cc2)c2cc[nH]c2n1)C1CC1` [Example 637, 4-(6-(cyclopropanecarboxamido)-1H-pyrrolo[2,3-b]pyridin-4-yl)phenyl cyclohexylmethanesulfonate], > 200 nM.
Turning to `Cc1c(NC(=O)C2CC2)nc2[nH]ccc2c1C1=CCN(C(=O)OC(C)(C)C)CC1` [Example 457, tert-butyl 4-(6-(cyclopropanecarboxamido)-5-methyl-1H-pyrrolo[2,3-b]pyridin-4-yl)-3,6-dihydropyridine-1 (2H)-carboxylate], the IC50 is > 200 nM.
With `CCc1cc(NS(=O)(=O)CC2(CC#N)CC2)ccc1-c1cc(NC(=O)C2CC2)nc2[nH]ccc12` [Example 110, N-(4-(4-(((1-(cyanomethyl)cyclopropyl)methyl)sulfonamido)-2-ethylphenyl)-1H-pyrrolo[2,3-b]pyridin-6-yl)cyclopropanecarboxamide], the IC50 was < 20 nM.
The same measure, in the same setting: in the case of `O=C(Nc1cc(-c2ccc(NS(=O)(=O)c3ccccc3)cc2)c2cc[nH]c2n1)C1CC1` [Example 24, N-(4-(4-(phenylsulfonamido)phenyl)-1H-pyrrolo[2,3-b]pyridin-6-yl)cyclopropanecarboxamide] it was < 20 nM.
For `O=C(Nc1cc(-c2ccc(C(F)(F)C(=O)N3CCS(=O)(=O)CC3)cc2)c2cc[nH]c2n1)C1CC1` [Example 571, N-(4-(4-(2-(1,1-dioxidothiomorpholino)-1,1-difluoro-2-oxoethyl)phenyl)-1H-pyrrolo[2,3-b]pyridin-6-yl)cyclopropanecarboxamide], the IC50 was in the range of 20 to 200 nM.
Consider `O=C(Nc1cc(-c2ccc(CS(=O)(=O)N3CCOCC3)cc2)c2cc[nH]c2n1)C1CC1` [Example 534, N-(4-(4-((morpholinosulfonyl)methyl)phenyl)-1H-pyrrolo[2,3-b]pyridin-6-yl)cyclopropanecarboxamide], for which the IC50 is > 200 nM.
With `CN1CCN(C(=O)Cc2ccc(-c3cc(NC(=O)C4CC4)nc4[nH]ccc34)cc2)CC1` [Example 550, N-(4-(4-(2-(4-methylpiperazin-1-yl)-2-oxoethyl)phenyl)-1H-pyrrolo[2,3-b]pyridin-6-yl)cyclopropanecarboxamide], the IC50 was 20 to 200 nM.
Regarding `O=C(Nc1cc(C2=CCC(NC3CCN(C(=O)c4ccc([N+](=O)[O-])cc4)CC3)CC2)c2cc[nH]c2n1)C1CC1` (stereo not shown) [Example 494, N-(4-(4-((1-(4-nitrobenzoyl)piperidin-4-yl)amino)cyclohex-1-en-1-yl)-1H-pyrrolo[2,3-b]pyridin-6-yl)cyclopropanecarboxamide], the IC50 is > 200 nM.
As to `CC1CN(C(=O)c2ccc(NCCN3CCOCC3)c(F)c2)CC=C1c1cc(NC(=O)C2CC2)nc2[nH]ccc12` (stereo not shown) [Example 323, N-(4-(1-(3-fluoro-4-((2-morpholinoethyl)amino)benzoyl)-3-methyl-1,2,3,6-tetrahydropyridin-4-yl)-1H-pyrrolo[2,3-b]pyridin-6-yl)cyclopropanecarboxamide], the IC50 is > 200 nM.
Regarding `N#CCC(=O)N1CC=C(c2cc(NC(=O)C3CC3)nc3[nH]ccc23)C1` [Example 426, N-(4-(1-(2-cyanoacetyl)-2,5-dihydro-1H-pyrrol-3-yl)-1H-pyrrolo[2,3-b]pyridin-6-yl)cyclopropanecarboxamide], the IC50 was > 200 nM.
Regarding `O=C(Nc1cc(-c2cnn(CC3CC3)c2)c2cc[nH]c2n1)C1CC1` [Example 478, N-(4-(1-(cyclopropylmethyl)-1H-pyrazol-4-yl)-1H-pyrrolo[2,3-b]pyridin-6-yl)cyclopropanecarboxamide], the IC50 was < 20 nM.
Regarding `CC1CN(C(=O)c2cc(Cl)nc(Cl)c2)CC=C1c1cc(NC(=O)C2CC2)nc2[nH]ccc12` (stereo not shown) [Example 372, N-(4-(1-(2,6-dichloroisonicotinoyl)-3-methyl-1,2,3,6-tetrahydropyridin-4-yl)-1H-pyrrolo[2,3-b]pyridin-6-yl)cyclopropanecarboxamide], the half-maximal inhibitory concentration (IC50) lay in the range of 20 to 200 nM.
